According to patent US20220235065A1 (Epizyme, Inc., priority 2016, published 2022):

How the values were obtained:
EHMT1 = biological target: T1, EHMT1 (Homo sapiens, UniProt Q9H9B1); experiment: EHMT1 PEP (EHMT1 peptide enzyme assay); assay type: biochemical; conditions: peptide substrate enzyme assay
T1 sequence (Q9H9B1 1-1298): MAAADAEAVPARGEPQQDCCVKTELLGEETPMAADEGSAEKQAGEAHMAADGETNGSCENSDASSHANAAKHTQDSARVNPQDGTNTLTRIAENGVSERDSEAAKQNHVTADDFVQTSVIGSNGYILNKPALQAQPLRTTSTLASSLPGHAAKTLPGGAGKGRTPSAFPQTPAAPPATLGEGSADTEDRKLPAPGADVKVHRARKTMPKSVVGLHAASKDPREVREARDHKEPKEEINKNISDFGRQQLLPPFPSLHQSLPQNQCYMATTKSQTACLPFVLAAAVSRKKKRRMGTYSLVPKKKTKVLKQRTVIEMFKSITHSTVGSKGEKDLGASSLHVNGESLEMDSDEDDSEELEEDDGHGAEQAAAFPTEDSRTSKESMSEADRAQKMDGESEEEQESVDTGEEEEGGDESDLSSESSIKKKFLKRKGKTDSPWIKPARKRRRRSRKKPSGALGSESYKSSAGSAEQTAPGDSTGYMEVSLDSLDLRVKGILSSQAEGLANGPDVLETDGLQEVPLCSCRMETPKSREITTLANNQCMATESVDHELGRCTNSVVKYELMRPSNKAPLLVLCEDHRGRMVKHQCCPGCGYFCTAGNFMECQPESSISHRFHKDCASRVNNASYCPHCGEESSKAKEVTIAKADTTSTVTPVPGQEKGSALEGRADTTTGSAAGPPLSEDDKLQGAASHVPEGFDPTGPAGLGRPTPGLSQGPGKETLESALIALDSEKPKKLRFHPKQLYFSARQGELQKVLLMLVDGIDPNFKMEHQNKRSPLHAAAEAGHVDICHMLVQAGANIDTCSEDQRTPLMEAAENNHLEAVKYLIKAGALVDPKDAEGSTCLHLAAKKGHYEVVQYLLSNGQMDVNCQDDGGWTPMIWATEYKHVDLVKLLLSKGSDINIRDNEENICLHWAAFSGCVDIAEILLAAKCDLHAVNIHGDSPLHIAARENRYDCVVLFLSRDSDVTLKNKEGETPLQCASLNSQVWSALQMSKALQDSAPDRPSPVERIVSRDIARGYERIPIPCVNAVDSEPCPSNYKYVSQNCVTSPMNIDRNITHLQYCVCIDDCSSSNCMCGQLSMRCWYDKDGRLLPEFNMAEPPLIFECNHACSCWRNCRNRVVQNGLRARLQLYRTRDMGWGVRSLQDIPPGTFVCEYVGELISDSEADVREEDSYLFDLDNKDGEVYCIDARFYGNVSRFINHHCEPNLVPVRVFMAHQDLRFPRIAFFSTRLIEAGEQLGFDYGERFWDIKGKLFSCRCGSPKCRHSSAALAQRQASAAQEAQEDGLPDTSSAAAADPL

[1] = system: H3K9me2 in MDA-MB-231 cells; experiment: MDA-MB-231 H3K9me2 in-cell western assay; assay type: cell-based; conditions: Homo sapiens, read-out: EHMT2 ICW (IC50 μM)
Text: MDA-MB-231 cell line was purchased from ATCC (Manassas, Va., USA). RPMI/Glutamax medium, Penicillin-Streptomycin, Heat Inactivated Fetal Bovine Serum, and D-PBS were purchased from Life Technologies (Grand Island, N.Y., USA). Odyssey blocking buffer, 800CW goat anti-mouse IgG (H+L) antibody, and Licor Odyssey Infrared Scanner were purchased from Licor Biosciences, Lincoln, Nebr., USA. H3K9me2 mouse monoclonal antibody (Cat #1220) was purchased from Abcam (Cambridge, Mass., USA). 16% Paraformaldehyde was purchased from Electron Microscopy Sciences, Hatfield, Pa., USA). MDA-MB-231 cells were maintained in complete growth medium (RPMI supplemented with 10% v/v heat inactivated fetal bovine serum) and cultured at 37° C. under 5% CO2. UNC0638 was purchased from Sigma-Aldrich (St. Louis, Mo., USA).
General Procedure for MDA-MB-231 HEK9me2 In-Cell Western Assay.
Compound (100 nL) was added directly to 384-well cell plate. MDA-MB-231 cells (ATCC) were seeded in assay medium (RPMI/Glutamax supplemented with 10% v/v heat inactivated fetal bovine serum and 1% Penicillin/Streptomycin, Life Technologies) at a concentration of 3,000 cells per well to a Poly-D-Lysine coated 384-well cell culture plate with 50 μL per well. Plates were incubated at 37° C., 5% CO2 for 48 hours (BD Biosciences 356697). Plates were incubated at room temperature for 30 minutes and then incubated at 37° C., 5% CO2 for additional 48 hours. After the incubation, 50 μL per well of 8% paraformaldehyde (Electron Microscopy Sciences) in PBS was added to the plates and incubated at room temperature for 20 minutes. Plates were transferred to a Biotek 406 plate washer and washed 2 times with 100 μL per well of wash buffer (1×PBS containing 0.3% Triton X-100 (v/v)). Next, 60 μL per well of Odyssey blocking buffer (Licor Biosciences) was added to each plate and incubated for 1 hour at room temperature. Blocking buffer was removed and 20 μL of monoclonal primary antibody α-H3K9me2 (Abcam) diluted 1:800 in Odyssey buffer with 0.1% Tween 20 (v/v) were added and plates were incubated overnight (16 hours) at 4° C. Plates were washed 5 times with 100 μL per well of wash buffer. Next 20 μL per well of secondary antibody was added (1:500 800CW […] anti-mouse IgG (H+L) antibody (Licor Biosciences), 1:1000 DRAQ5 (Cell Signaling Technology) in Odyssey buffer with 0.1% Tween 20 (v/v)) and incubated for 1 hour at room temperature. The plates were washed 5 times with 100 μL per well wash buffer then 2 times with 100 μL per well of water. Plates were allowed to dry at room temperature then imaged on a Licor Odyssey Infrared Scanner (Licor Biosciences) which measured integrated intensity at 700 nm and 800 nm wavelengths. Both 700 and 800 channels were scanned.
% Inhibition Calculation.
First, the ratio for each well was determined by
Each plate included fourteen control wells of DMSO only treatment (Minimum Inhibition) as well as fourteen control wells (background wells) for maximum inhibition treated with control compound UNC0638 (Background wells).
The average of the ratio values for each well was calculated and used to determine the percent inhibition for each test well in the plate. Control compound was serially diluted three-fold in DMSO for a total of 10 test concentrations beginning at 1 μM. Percent inhibition was calculated as: […]
IC50 curves were generated using triplicate wells per concentration of compound. The IC50 is the concentration of compound at which measured methylation is inhibited by 50% as interpolated from the dose response curves. IC50 values were calculated using a non-linear regression (variable slope-four parameter fit model) with by the following formula
where Top is fixed at 100% and Bottom is fixed to 0%, [I]=concentration of inhibitor, IC50=half maximal inhibitory concentration and n=Hill Slope.

CNc1cc(C)nc(Nc2ccc(OC)c(-c3ccc4nc(C)[nH]c4c3)c2)n1 [Compound 155]
IC50 (EHMT1): > 10 µM
IC50 [1]: > 10 µM

CNC1=Nc2cc(-c3cc4ccncc4[nH]3)c(OC)cc2C12CCC2 [Compound 215]
IC50 (EHMT1): < 0.1 µM
IC50 [1]: 0.1 to 1 µM

CNc1ccnc(Nc2ccc(OC)c(-c3cc4[nH]ncc4cn3)c2)n1 [Compound 174]
IC50 (EHMT1): > 10 µM
IC50 [1]: 1 to 10 µM

CNc1cc(C)nc(Nc2ccc(OC)c(-c3cc4cnoc4cn3)c2)n1 [Compound 235]
IC50 (EHMT1): > 10 µM
IC50 [1]: > 10 µM

CNCc1cnn(-c2cc(Nc3nccc(NC)n3)ccc2OC)c1 [Compound 181, N2-(4-methoxy-3-(4-((methylamino)methyl)-1H-pyrazol-1-yl)phenyl)-N4-methylpyrimidine-2,4-diamine]
IC50 (EHMT1): < 0.1 µM
IC50 [1]: 0.1 to 1 µM

CNc1ccnc(Nc2ccc(OC)c(-c3ccc4cc[nH]c4c3)c2)n1 [Compound 178]
IC50 (EHMT1): > 10 µM
IC50 [1]: > 10 µM

CNc1cc(C2CCOCC2)c2cc(OC)c(-n3cc(C4CCCN4)nn3)cc2n1 (stereo not shown) [Compound 196]
IC50 (EHMT1): 0.1 to 1 µM
IC50 [1]: 1 to 10 µM

CNc1cc(C)nc(Nc2ccc(OC)c(-c3cnc4cc[nH]c4c3)c2)n1 [Compound 223]
IC50 (EHMT1): < 0.1 µM
IC50 [1]: 0.1 to 1 µM

CNc1cc(C)nc(Nc2ccc(OC)c(-c3cc4[nH]c(C)cc4cn3)c2)n1 [Compound 207]
IC50 (EHMT1): < 0.1 µM
IC50 [1]: 0.1 to 1 µM

CNc1cc(C)nc(Nc2ccc(OC)c(-n3cc([C@H]4CCCN4)nn3)c2)n1 [Compound 213]
IC50 (EHMT1): < 0.1 µM
IC50 [1]: 0.1 to 1 µM

CNCc1cnn(-c2cc3nc(NC)cc(C4CCOCC4)c3cc2OC)c1 [Compound 184]
IC50 (EHMT1): 0.1 to 1 µM
IC50 [1]: 1 to 10 µM

CNc1cc(C)nc(Nc2ccc(OC)c(-c3cc4ccncc4[nH]3)c2)n1 [Compound 157, N2-(4-methoxy-3-(1H-pyrrolo[2,3-c]pyridin-2-yl)phenyl)-N4,6-dimethylpyrimidine-2,4-diamine]
IC50 (EHMT1): < 0.1 µM
IC50 [1]: 0.1 to 1 µM

CNc1cc(C)nc(Nc2ccc(OC)c(-n3cc(CN(C)C)c(C)n3)c2)n1 [Compound 160]
IC50 (EHMT1): < 0.1 µM
IC50 [1]: 0.1 to 1 µM

CNc1cc(C)nc(Nc2ccc(OC)c(-n3cc(C(C)NC)nn3)c2)n1 (stereo not shown) [Compound 164]
IC50 (EHMT1): 0.1 to 1 µM
IC50 [1]: 0.1 to 1 µM

CNc1ccnc(Nc2ccc(OC)c(-c3cc4[nH]ccc4cn3)c2)n1 [Compound 175, N2-(4-methoxy-3-(1H-pyrrolo[3,2-c]pyridin-6-yl)phenyl)-N4-methylpyrimidine-2,4-diamine]
IC50 (EHMT1): < 0.1 µM
IC50 [1]: 0.1 to 1 µM

CNc1ccnc(Nc2ccc(OC)c(-n3cc(CN(C)C)nn3)c2)n1 [Compound 171]
IC50 (EHMT1): < 0.1 µM
IC50 [1]: 0.1 to 1 µM

CNCc1cnn(-c2cc3c(cc2OC)C2(CCC2)C(NC)=N3)c1 [Compound 187]
IC50 (EHMT1): < 0.1 µM
IC50 [1]: 0.1 to 1 µM

CNc1cc(C)nc(Nc2ccc(OC)c(-n3cc(C(NC)C(F)(F)F)nn3)c2)n1 (stereo not shown) [Compound 165]
IC50 (EHMT1): > 10 µM
IC50 [1]: > 10 µM

COc1cc(NC2CCNCC2)ncc1-c1cc2ccncc2[nH]1 [Compound 205]
IC50 (EHMT1): 1 to 10 µM
IC50 [1]: > 10 µM

CNc1cc(C)nc(Nc2ccc(OC)c(-c3cc4c(cn3)CC(=O)N4)c2)n1 [Compound 219]
IC50 (EHMT1): 0.1 to 1 µM
IC50 [1]: > 10 µM

CNc1ccnc(Nc2ccc(OC)c(-n3cnc(CN(C)C)c3)c2)n1 [Compound 170]
IC50 (EHMT1): < 0.1 µM
IC50 [1]: 0.1 to 1 µM

CNc1cc(C)nc(Nc2ccc(OC)c(-c3ccc4c(c3)NC(=O)C4)c2)n1 [Compound 218]
IC50 (EHMT1): > 10 µM
IC50 [1]: 1 to 10 µM

CNc1cc(C)nc(Nc2ccc(OC)c(-n3cc4cncc(C)c4n3)c2)n1 [Compound 151]
IC50 (EHMT1): 0.1 to 1 µM
IC50 [1]: 0.1 to 1 µM

CNc1cc(C)nc(Nc2ccc(OC)c(-n3cc(C(C)(C)NC)nn3)c2)n1 [Compound 166]
IC50 (EHMT1): 1 to 10 µM
IC50 [1]: > 10 µM

COc1cc(NC2CCNCC2)ccc1-c1cc(C2CC2)cnn1 [Compound 236]
IC50 (EHMT1): > 10 µM
IC50 [1]: > 10 µM

CNc1cc(C)nc(Nc2ccc(OC)c(-c3cc(C4CC4)ncn3)c2)n1 [Compound 232]
IC50 (EHMT1): 1 to 10 µM
IC50 [1]: 1 to 10 µM

CNC1=Nc2cc(-n3cc([C@H]4CCCN4)nn3)c(OC)cc2C12CCC2 [Compound 192]
IC50 (EHMT1): < 0.1 µM
IC50 [1]: 0.1 to 1 µM

CNCc1cn(-c2cc(Nc3nc(C)cc(NC)n3)ccc2OC)nn1 [Compound 159, N2-(4-methoxy-3-(4-((methylamino)methyl)-1H-1,2,3-triazol-1-yl)phenyl)-N4,6-dimethylpyrimidine-2,4-diamine]
IC50 (EHMT1): < 0.1 µM
IC50 [1]: 0.1 to 1 µM

CNc1cc(C)nc(Nc2ccc(OC)c(-n3cc4cc(Br)ccc4n3)c2)n1 [Compound 148]
IC50 (EHMT1): 0.1 to 1 µM
IC50 [1]: 1 to 10 µM

CNc1cc(C)nc(Nc2ccc(OC)c(-c3cc4[nH]ccc4cn3)c2)n1 [Compound 206, N2-(4-methoxy-3-(1H-pyrrolo[3,2-c]pyridin-6-yl)phenyl)-N4,6-dimethylpyrimidine-2,4-diamine]
IC50 (EHMT1): < 0.1 µM
IC50 [1]: < 0.1 µM

CNc1cc(C)nc(Nc2ccc(OC)c(-c3cc4[nH]ccc4nc3C)c2)n1 [Compound 228]
IC50 (EHMT1): < 0.1 µM
IC50 [1]: 0.1 to 1 µM

CNc1cc(C)nc(Nc2ccc(OC)c(-c3cn4c(n3)CN(C)CC4)c2)n1 [Compound 6]
IC50 (EHMT1): > 10 µM
IC50 [1]: > 10 µM

CNC1=Nc2cc(-c3[nH]c4cnccc4c3Cl)c(OC)cc2C12CCC2 [Compound 216]
IC50 (EHMT1): < 0.1 µM
IC50 [1]: 0.1 to 1 µM

CNCc1cnn(-c2c(OC)ccc(Nc3nc(C)cc(NC)n3)c2OC)c1 [Compound 222]
IC50 (EHMT1): < 0.1 µM
IC50 [1]: 0.1 to 1 µM

CNc1cc(C)nc(Nc2ccc(OC)c(-c3cc4cnccc4n3C)c2)n1 [Compound 158]
IC50 (EHMT1): < 0.1 µM
IC50 [1]: 0.1 to 1 µM
